Like-named read-outs stand apart in the source and are kept apart here.

Series [1] is described as follows: Compound quantification (PK) in plasma, paw and spleen of CAIA mice. The series is classed as in vivo. The note with it: DBA/1, mouse, oral, day 20, mean±SEM, N=3; for concentration at 2 h: 2 hrs post-administration; for concentration at 6 h: 6 hrs post-administration. The protocol:
FIG. 2B: Depicts the results of a PK (pharmacokinetic) study of Compound A, 55 mg/kg, 30 mg/kg and 10 mg/kg, p.o., s.i.d. (once daily), in the plasma, paw and spleen of treated mice, N=3 mice per group tested. The data shown in the figure represents the mean±SEM (standard error of the mean).
While the level of Compound A in the target tissue, i.e., the paw, was relatively low, the levels of Compound A were relatively constant between the two time points for the 55 mg/kg treatment group. […] The data (mean±SEM, N=3) represented in FIG. 2B is tabulated below:
Plasma and protein extraction from paw and spleen samples were submitted for quantitative analysis to determine the respective compound concentrations. Blood samples were collected into heparinized tubes and placed on wet ice until centrifuged (16,000×g, 5 minutes) to separate the plasma. Supernatant was collected and stored at −20° C. pending analysis. At the time of analysis, two volumes of cold acetonitrile containing an internal standard (alprenolol) were added to each sample which were then vortexed and centrifuged. The supernatants were removed, placed into an auto-sampler vial and the amount of compound present in the samples was analyzed by liquid chromatograph/mass spectrometry (LC-MS-MS). The concentration of compound in the samples was quantified against a mouse plasma standard curve made via serial dilution in a concentration range from 5 to 20,000 ng/mL. Samples containing concentrations greater than 10% above the top of the standard curve were diluted 1:10 with acetonitrile. The limit of detection for plasma, paw and spleen were <10 ng/ml.

The next series concerns the target EGFR (Homo sapiens, UniProt P00533). The series can be described thus: Kinase profiling panel, EGFR. The series is classed as binding. The note with it: 1 μM.
In another series the target is Src kinase (Homo sapiens, UniProt P12931). The series can be described thus: Kinase profiling panel, Src. The series is classed as binding. As to conditions: 1 μM.
The next series relates to phospho-STAT3. The series can be described thus: CIA model, paw phospho-STAT3. The series is classed as in vivo, female DBA/1 mice. As for the experimental part:
Female DBA/1 mice were injected with purified collagen type II in CFA i.d. (intradermal), then boosted with collagen type II in IFA, s.c., (subcutaneous) on day 21 followed by a day 28 LPS injection i.p. to induce arthritis (CIA). Mice that scored a ‘1’ or better for each paw were considered arthritic and entered into the study. Treatments started after 7-10 days of arthritis induction. Compound A was provided orally, b.i.d., for all doses tested; Dex was administered i.p. at 1.5 mg/kg, three times a week; and vehicle (PEG400+1% DMSO) was provided orally, b.i.d.
FIG. 4B: Depicts Phospho-STAT3 expression in arthritic paws for each treatment group.
A more detailed description of this method can be found described elsewhere (Lu et al, 2010, submitted for publication). Briefly, the front (including carpus) and back (including tarsus) right paws were collected and frozen in dry-ice cooled isopentane and stored at −80° C. until use. The paws were cut to 2 mm×2 mm segments and kept on dry-ice in round bottom polypropylene tubes. […] Protein concentration was measured using a BCA protein assay (Pierce, Rockford, Ill.) and adjusted to 3 mg/ml. […]

A short description of another series: CIA model, body mass. Format: in vivo, female DBA/1 mice. As for the experimental part: FIGS. 9A and 9B: Depict the effect of treatment on body mass and serum anti-CII autoantibody concentration in a CIA model.
Female DBA/1 mice were injected with purified collagen type II in CFA i.d. (intradermal) then boosted with collagen type II in IFA s.c. (subcutaneous) on day 21 followed by a day 28 LPS injection i.p. (intraperitoneal) to induce arthritis (CIA). Mice that scored a ‘1’ or better for each paw were considered arthritic and entered into the study, treatments started after several days of full arthritis. Compound A was provided orally, b.i.d., for each dose tested; Dex was provided i.p. at 1.5 mg/kg three times a week; vehicle (PEG400+1% DMSO) was provided orally, b.i.d.

Series [2] concerns JAK2 in irf-bla TF-1 cells. The series can be described thus: GeneBLAzer reporter assay in irf-bla TF-1 cells. Format: cell-based.
Procedure: The effect of Compound A in a cellular system was measured using irf-bla TF-1 cells (JAK2) and Ba/F3 (JAK3) cells. These cells were not tested for the presence of JAK1 and TYK2. IC50 values are reported as the average±standard deviation of at least 4 independent determinations.
The mark [3] stands for this setting: paw, 10 mg/kg p.o., read-out: concentration in paw.
Where [4] appears, read: paw, 30 mg/kg p.o., read-out: concentration in paw.
Setting [5] is: paw, 55 mg/kg p.o., read-out: concentration in paw.
[6] abbreviates: plasma, 10 mg/kg p.o., read-out: concentration in plasma.
The mark [7] stands for this setting: plasma, 30 mg/kg p.o., read-out: concentration in plasma.
The mark [8] stands for this setting: plasma, 55 mg/kg p.o., read-out: concentration in plasma.
The mark [9] stands for this setting: spleen, 10 mg/kg p.o., read-out: concentration in spleen.
Where [10] appears, read: spleen, 30 mg/kg p.o., read-out: concentration in spleen.
Setting [11] is: spleen, 55 mg/kg p.o., read-out: concentration in spleen.

Chain of Src kinase (P12931 whole entry): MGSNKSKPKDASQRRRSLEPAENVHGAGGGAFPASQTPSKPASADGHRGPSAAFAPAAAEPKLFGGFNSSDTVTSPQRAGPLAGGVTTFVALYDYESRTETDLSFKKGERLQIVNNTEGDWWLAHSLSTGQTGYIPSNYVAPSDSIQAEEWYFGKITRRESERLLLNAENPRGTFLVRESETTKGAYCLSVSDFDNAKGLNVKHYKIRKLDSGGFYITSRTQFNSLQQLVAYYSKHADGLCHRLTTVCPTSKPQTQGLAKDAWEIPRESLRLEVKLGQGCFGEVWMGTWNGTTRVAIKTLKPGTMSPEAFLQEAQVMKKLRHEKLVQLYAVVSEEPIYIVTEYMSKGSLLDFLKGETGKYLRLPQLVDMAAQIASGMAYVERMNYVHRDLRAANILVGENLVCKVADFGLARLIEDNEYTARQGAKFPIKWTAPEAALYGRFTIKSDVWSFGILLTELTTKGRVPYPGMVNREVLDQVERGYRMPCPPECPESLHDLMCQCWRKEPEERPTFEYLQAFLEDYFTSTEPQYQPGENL
Chain of EGFR (P00533 25-1210, species assumed): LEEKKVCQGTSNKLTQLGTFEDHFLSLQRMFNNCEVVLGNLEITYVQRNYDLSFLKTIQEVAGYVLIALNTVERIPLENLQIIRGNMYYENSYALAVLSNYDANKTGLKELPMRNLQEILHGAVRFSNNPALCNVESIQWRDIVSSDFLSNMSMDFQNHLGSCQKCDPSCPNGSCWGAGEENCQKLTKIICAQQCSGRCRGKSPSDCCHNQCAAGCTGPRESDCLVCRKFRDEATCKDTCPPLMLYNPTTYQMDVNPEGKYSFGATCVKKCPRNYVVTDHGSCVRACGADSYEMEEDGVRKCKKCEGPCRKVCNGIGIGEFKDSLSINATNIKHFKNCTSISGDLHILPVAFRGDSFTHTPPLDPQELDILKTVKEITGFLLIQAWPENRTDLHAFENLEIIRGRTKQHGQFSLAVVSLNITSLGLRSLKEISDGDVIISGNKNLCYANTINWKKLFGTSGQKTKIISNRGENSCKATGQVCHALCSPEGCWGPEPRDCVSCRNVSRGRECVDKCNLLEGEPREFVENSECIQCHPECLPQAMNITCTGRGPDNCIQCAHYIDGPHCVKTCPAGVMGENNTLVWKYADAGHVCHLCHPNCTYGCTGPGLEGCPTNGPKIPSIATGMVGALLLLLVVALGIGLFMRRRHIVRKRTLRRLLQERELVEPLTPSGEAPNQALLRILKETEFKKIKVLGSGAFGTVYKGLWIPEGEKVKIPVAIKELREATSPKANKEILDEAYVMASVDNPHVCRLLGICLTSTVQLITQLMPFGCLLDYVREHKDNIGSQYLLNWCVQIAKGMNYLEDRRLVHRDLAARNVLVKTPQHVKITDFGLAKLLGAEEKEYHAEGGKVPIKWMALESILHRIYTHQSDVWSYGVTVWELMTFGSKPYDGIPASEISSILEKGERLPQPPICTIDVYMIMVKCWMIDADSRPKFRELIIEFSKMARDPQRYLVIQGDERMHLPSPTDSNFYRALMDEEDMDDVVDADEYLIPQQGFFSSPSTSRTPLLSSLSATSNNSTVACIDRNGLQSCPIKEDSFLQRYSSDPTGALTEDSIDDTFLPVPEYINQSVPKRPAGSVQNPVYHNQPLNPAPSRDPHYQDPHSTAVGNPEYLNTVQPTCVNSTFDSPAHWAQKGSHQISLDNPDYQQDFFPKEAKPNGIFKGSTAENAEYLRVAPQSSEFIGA
Procedure for EGFR: (§1) The ability of Compound A to inhibit other members of the kinome was also assessed using binding assays for a panel of 402 kinases [25].
Procedure for Src kinase: as §1

For `CN1CCN(c2cccc(Nc3nc4c(-c5ccc(S(C)(=O)=O)cc5)cccn4n3)c2)CC1` [Compound A, [8-(4-Methanesulfonyl-phenyl)-[1,2,4]triazolo[1,5-a]pyridin-2-yl]-[3-(4-methyl-piperazin-1-yl)-phenyl]-amine], the concentration at 2 h in series [1] (setting [3]) was 0.214 ± 0.0124 µg/mL; in series [1] (setting [4]), 0.508 ± 0.213 µg/mL; in series [1] (setting [5]) it was 0.66 ± 0.0811 µg/mL; in series [1] (setting [6]) it was 1.16 ± 0.0481 µg/mL; in series [1] (setting [7]) it was 2.04 ± 0.693 µg/mL; in series [1] (setting [8]), 3.16 ± 0.456 µg/mL. In addition, the concentration at 2 h in series [1] (setting [9]) is 0.673 ± 0.102 µg/mL; in series [1] (setting [10]) it was 1.33 ± 0.113 µg/mL; in series [1] (setting [11]), 3.9 ± 0.427 µg/mL. The concentration at 6 h in series [1] (setting [3]) was found to be 0.172 ± 0.0487 µg/mL; in series [1] (setting [4]), 0.376 ± 0.0847 µg/mL; in series [1] (setting [5]), 0.472 ± 0.0743 µg/mL; in series [1] (setting [6]), 0.433 ± 0.0567 µg/mL; in series [1] (setting [7]) it was 1.31 ± 0.258 µg/mL; in series [1] (setting [8]) it was 1.48 ± 0.138 µg/mL. For the same compound, the concentration at 6 h in series [1] (setting [9]) came to 0.273 ± 0.0504 µg/mL; in series [1] (setting [10]), 1.17 ± 0.395 µg/mL; in series [1] (setting [11]), 2.35 ± 0.433 µg/mL. At EGFR, the “activity against EGFR in profiling panel” value was “lacked activity”. For the same compound, the “activity against Src in profiling panel” value on Src kinase was “lacked activity”. Further, the “paw pSTAT3” value in the series with phospho-STAT3 (55 mg/kg, p<0.01) was “significantly reduced”; in the series on phospho-STAT3 (100 mg/kg, p<0.001), “significantly reduced”. In addition, in “CIA model, body mass”, the body mass result is reported as “did not significantly change”. The “inhibition of JAK2, reporter assay” value in series [2] is recorded as “inhibits JAK2 in irf-bla TF-1 cells”.
